Reference: patent US20230117034A1, “PYRAZOLOTRIAZINES” (Bayer Aktiengesellschaft, priority 2019, published 2023)

Assays:
[1] = test system: BRCA1 mRNA expression in MDA-MB-231 cells; experiment: qRT-PCR assay: BRCA1 mRNA expression in MDA-MB-231; assay type: cell-based, human; details: Homo sapiens, MDA-MB-231, Inhibition of BRCA1 mRNA expression in MDA-MB-231 cells; median; read-out: RTqPCR-MDA-MB-231, IC50, BRCA1 (median)
In short: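 First, cells are plated at 200,000 per well and allowed 24 h. Second, test substances are applied continuously for a further 24 h. Finally, RNA is isolated, 600 ng is converted to cDNA, and qPCR quantifies the transcript relative to GAPDH.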

[2] = test system: CAL-120, human breast adenocarcinoma cells; experiment: Proliferation assay CAL-120 (crystal violet, 4 days); assay type: cell-based; details: Homo sapiens, CAL-120, 96 h, CAL-120 cells, median, read-out: Prolif-CAL-120, IC50-[mol/l] (median)
In short: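 Growth was measured by crystal violet staining after cells had been treated with compounds (0.01-10 µmol/L, 0.1% DMSO) for 4 days, beginning 24 h after seeding. Values were normalized to a zero-point plate and to untreated controls, and IC50 values were derived by a four-parameter fit.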

[3] = biological target: T1, CDK12 (nuclear staining in CAL-120 cells) (Homo sapiens, UniProt Q9NYV4); experiment: CDK12 nuclear protein level: immunofluorescence/high content analysis (CAL-120); assay type: cell-based; details: for DC50: CAL-120 cells, 24 h, immunofluorescence, 50% reduction of nuclear CDK12 staining intensity, median, read-out: CDK12 degradation IF, DC50- [mol/l] (median); for (IC50 CDK12 high ATP) to (Degradation DC50 CDK12) ratio: ratio of IC50 CDK12 high ATP kinase assay to DC50 CDK12 degradation (IF, CAL-120)
T1 construct: endogenous in cells; host or cells: CAL-120 human breast cancer cells (DSMZ ACC 459)
In short: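 DC50 is the degrader concentration that halves nuclear CDK12 immunofluorescence relative to controls, measured by high-content imaging. CAL-120 cells were exposed to compound for 24 h at 37 °C before PFA fixation, and signal was normalized to DMSO and control wells.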

T1 sequence (Q9NYV4 whole entry): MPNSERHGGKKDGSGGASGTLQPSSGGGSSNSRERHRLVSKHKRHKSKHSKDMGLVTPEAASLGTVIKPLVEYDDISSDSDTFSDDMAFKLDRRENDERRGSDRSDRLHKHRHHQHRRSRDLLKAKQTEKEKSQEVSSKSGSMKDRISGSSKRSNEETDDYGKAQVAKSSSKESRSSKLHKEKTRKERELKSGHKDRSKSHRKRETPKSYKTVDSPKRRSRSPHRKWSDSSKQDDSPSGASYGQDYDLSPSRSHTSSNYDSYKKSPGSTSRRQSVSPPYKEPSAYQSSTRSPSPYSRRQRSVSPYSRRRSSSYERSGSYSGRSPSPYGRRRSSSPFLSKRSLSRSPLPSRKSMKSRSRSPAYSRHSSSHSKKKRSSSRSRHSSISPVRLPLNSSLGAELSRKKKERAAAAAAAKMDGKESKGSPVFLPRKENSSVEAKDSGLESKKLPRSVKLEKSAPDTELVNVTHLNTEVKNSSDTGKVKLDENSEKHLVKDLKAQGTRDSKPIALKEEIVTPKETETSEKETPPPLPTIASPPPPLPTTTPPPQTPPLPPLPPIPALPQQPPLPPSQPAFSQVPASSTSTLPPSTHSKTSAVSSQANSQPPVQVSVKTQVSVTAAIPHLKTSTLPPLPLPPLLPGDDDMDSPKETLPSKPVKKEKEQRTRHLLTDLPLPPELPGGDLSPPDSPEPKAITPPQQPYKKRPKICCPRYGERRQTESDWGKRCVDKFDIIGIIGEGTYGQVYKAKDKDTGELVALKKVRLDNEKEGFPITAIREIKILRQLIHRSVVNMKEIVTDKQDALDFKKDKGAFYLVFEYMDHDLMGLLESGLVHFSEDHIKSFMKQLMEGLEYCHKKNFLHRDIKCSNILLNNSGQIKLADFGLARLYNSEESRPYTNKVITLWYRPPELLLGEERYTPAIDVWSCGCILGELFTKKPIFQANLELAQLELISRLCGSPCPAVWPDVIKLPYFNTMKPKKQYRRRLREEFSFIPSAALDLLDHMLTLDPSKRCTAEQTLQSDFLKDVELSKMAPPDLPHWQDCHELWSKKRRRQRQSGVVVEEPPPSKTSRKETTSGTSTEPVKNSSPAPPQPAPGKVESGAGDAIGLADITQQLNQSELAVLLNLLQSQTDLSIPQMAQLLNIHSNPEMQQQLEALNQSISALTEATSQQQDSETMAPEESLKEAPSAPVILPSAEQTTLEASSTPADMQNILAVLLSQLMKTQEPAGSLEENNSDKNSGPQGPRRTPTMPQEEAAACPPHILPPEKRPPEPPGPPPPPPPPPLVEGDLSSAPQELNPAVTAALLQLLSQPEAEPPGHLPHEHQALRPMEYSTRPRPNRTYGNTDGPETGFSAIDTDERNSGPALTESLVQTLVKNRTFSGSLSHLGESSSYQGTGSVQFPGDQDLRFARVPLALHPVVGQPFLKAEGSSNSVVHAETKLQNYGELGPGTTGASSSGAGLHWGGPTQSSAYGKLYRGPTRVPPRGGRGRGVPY
T1 sequence (O75909 whole entry partner): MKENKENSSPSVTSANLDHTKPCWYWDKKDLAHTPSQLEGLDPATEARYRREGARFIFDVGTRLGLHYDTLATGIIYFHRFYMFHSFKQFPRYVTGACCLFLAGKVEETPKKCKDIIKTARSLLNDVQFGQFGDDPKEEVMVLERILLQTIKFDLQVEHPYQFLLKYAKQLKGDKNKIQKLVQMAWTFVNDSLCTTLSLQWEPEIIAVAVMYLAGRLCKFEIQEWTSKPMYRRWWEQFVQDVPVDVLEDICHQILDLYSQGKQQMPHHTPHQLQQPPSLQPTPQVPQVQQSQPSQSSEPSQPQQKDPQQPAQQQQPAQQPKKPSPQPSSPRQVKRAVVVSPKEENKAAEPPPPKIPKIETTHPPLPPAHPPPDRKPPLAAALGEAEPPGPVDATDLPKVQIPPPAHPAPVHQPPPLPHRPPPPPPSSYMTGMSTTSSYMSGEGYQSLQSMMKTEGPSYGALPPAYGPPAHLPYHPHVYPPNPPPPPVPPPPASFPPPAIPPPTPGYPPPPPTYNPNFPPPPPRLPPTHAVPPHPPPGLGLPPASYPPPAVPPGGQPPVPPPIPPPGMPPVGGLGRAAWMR

## FC(F)n1cc(-c2cnn3c(NCc4nc5cc(Cl)c(Cl)cc5[nH]4)nc(N4CCOCC4)nc23)cn1 [Example 423, N-[(5,6-dichloro-1H-benzimidazol-2-yl)methyl]-8-[1-(difluoromethyl)-1H-pyrazol-4-yl]-2-(morpholin-4-yl)pyrazolo[1,5-a][1,3,5]triazin-4-amine]
[1]
  IC50: 6.2 nM
[2]
  IC50: 12.3 nM
[3]
  DC50: 17.8 nM
  (IC50 CDK12 high ATP) to (Degradation DC50 CDK12) ratio: >720

## Fc1ccc(-c2nnc(CNc3nc(N4CCOCC4)nc4c(Br)cnn34)[nH]2)c(F)c1 [Example 41, 8-bromo-N-{[5-(2,4-difluorophenyl)-4H-1,2,4-triazol-3-yl]methyl}-2-(morpholin-4-yl)pyrazolo[1,5-a][1,3,5]triazin-4-amine]
[1]
  IC50: 3670 nM
[2]
  IC50: 11800 nM
[3]
  DC50: 4.06 nM

## Cc1cnn2c(NCc3nc4c(F)c(F)ccc4[nH]3)nc(N3CCN(C)CC3)nc12 [Example 394, N-[(4,5-difluoro-1H-benzimidazol-2-yl)methyl]-8-methyl-2-(4-methylpiperazin-1-yl)pyrazolo[1,5-a][1,3,5]triazin-4-amine]
[1]
  IC50: 11.4 nM
[2]
  IC50: 4.32 nM
[3]
  DC50: 5.65 nM
  (IC50 CDK12 high ATP) to (Degradation DC50 CDK12) ratio: >3303

## FC(F)n1cc(-c2cnn3c(NCc4nc5ccccc5[nH]4)nc(N4CCOCC4)nc23)cn1 [Example 421, N-[(1H-benzimidazol-2-yl)methyl]-8-[1-(difluoromethyl)-1H-pyrazol-4-yl]-2-(morpholin-4-yl)pyrazolo[1,5-a][1,3,5]triazin-4-amine]
[1]
  IC50: 74.6 nM
[2]
  IC50: 38.3 nM
[3]
  DC50: 21.6 nM
  (IC50 CDK12 high ATP) to (Degradation DC50 CDK12) ratio: 397

## Cc1cnn2c(NCc3nc4c(F)c(F)ccc4[nH]3)nc(N3CC4CCC(C3)N4)nc12 [Example 400, 2-(3,8-diazabicyclo[3.2.1]octan-3-yl)-N-[(4,5-difluoro-1H-benzimidazol-2-yl)methyl]-8-methylpyrazolo[1,5-a][1,3,5]triazin-4-amine]
[1]
  IC50: 14 nM
[2]
  IC50: 5.23 nM
[3]
  DC50: 6.15 nM
  (IC50 CDK12 high ATP) to (Degradation DC50 CDK12) ratio: >2712

## Clc1cc2nc(CNc3nc(N4CCOCC4)nc4c(-c5ccnnc5)cnn34)[nH]c2cc1Cl.O=C(O)C(F)(F)F [Example 440, trifluoroacetic acid N-[(5,6-dichloro-1H-benzimidazol-2-yl)methyl]-2-(morpholin-4-yl)-8-(pyridazin-4-yl)pyrazolo[1,5-a][1,3,5]triazin-4-amine]
[1]
  IC50: 2.7 nM
[2]
  IC50: 7.39 nM
[3]
  DC50: 6.67 nM
  (IC50 CDK12 high ATP) to (Degradation DC50 CDK12) ratio: >2996

## COc1ccccc1-c1nnc(CNc2nc(N3CCN(C)CC3)nc3c(C4CC4(F)F)cnn23)[nH]1 (stereo not drawn) [Example 430, 8-(2,2-difluorocyclopropyl)-N-{[5-(2-methoxyphenyl)-4H-1,2,4-triazol-3-yl]methyl}-2-(4-methylpiperazin-1-yl)pyrazolo[1,5-a][1,3,5]triazin-4-amine]
[1]
  IC50: 10 nM
[2]
  IC50: 38.6 nM
[3]
  DC50: 25.3 nM
  (IC50 CDK12 high ATP) to (Degradation DC50 CDK12) ratio: >789

## CCNc1nc(NCc2ncc(-c3ccccc3)[nH]2)n2ncc(C(C)C)c2n1 [Example 34, N^2-ethyl-N^4-[(5-phenyl-1H-imidazol-2-yl)methyl]-8-(propan-2-yl)pyrazolo[1,5-a][1,3,5]triazine-2,4-diamine]
[1]
  IC50: 10 nM
[3]
  DC50: 12.7 nM
  (IC50 CDK12 high ATP) to (Degradation DC50 CDK12) ratio: >449
